Patent US5200309A, “Color photographic materials including magenta coupler, carbonamide compound and aniline or amine compound, and methods” (Eastman Kodak Company, priority 1991, dated 1993)

Assay: Potentiometric titration of dispersion pKa of couplers (two-phase aqueous dispersion)
Type: physicochemical
Description: Preferred two-equivalent magenta dye-forming couplers for the practice of this invention include those that have pKa values of less than 10.0 when dispersed together with a coupler solvent. Potentiometric titrations were used to measure pKa values for some of the preferred couplers of the invention as aqueous dispersions. In these two-phase mixtures, the term pKa denotes the aqueous buffer pH at which half of the coupler in the oil phase is ionized or ion paired. Table I lists dispersion pKa values measured with 0.50 M potassium counter ion.

[1] = coupler solvent S2, coupler:solvent weight ratio 1:2, 0.50 M potassium
[2] = coupler solvent C5, coupler:solvent weight ratio 1:1, 0.50 M potassium
[3] = coupler solvent S1, coupler:solvent weight ratio 1:1, 0.50 M potassium

Row | Structure (SMILES) | pKa(0.5M K+) [1] | pKa(0.5M K+) [2] | pKa(0.5M K+) [3] | pKa(0.5M K+) (coupler solvent C1, coupler:solvent weight ratio 1:2, 0.50 M potassium)
1 | CCCCCCCCCCCCNS(=O)(=O)c1ccc(NC2=NN(c3c(Cl)cc(Cl)cc3Cl)C(=O)C2Sc2cc(C(C)(C)CC(C)(C)C)ccc2OCCCC)c(Cl)c1 (stereo not drawn) [Coupler M1] | 8.5 |  |  | 
2 | CCCCCCCCCCCCCC(=O)Nc1ccc(Cl)c(NC2=NN(c3c(Cl)cc(Cl)cc3Cl)C(=O)C2Sc2ccccc2NC(=O)C(CC)Oc2ccc(C(C)(C)CC)cc2C(C)(C)CC)c1 (stereo not drawn) [Coupler M3] |  | 8.2 | 7.9 | 
3 | CCCCCCCCCCCCNS(=O)(=O)c1ccc(NC2=NN(c3c(Cl)cc(Cl)cc3Cl)C(=O)C2Sc2ccccc2NC(=O)C(CC)Oc2ccc(C(C)(C)CC)cc2C(C)(C)CC)c(Cl)c1 (stereo not drawn) [Coupler M4] |  | 8.0 | 7.6 | 
4 | CCCCCCCCCCCCCCCC(=O)Nc1ccc(Cl)c(NC2=NN(c3c(Cl)c(Cl)c(Cl)c(Cl)c3Cl)C(=O)C2Sc2ccccc2NC(=O)OCc2ccccc2)c1 (stereo not drawn) [Coupler M7] | 7.5 |  |  | 
5 | CCCCCCCCCCCCNS(=O)(=O)c1ccc(NC2=NN(c3c(Cl)cc(Cl)cc3Cl)C(=O)C2Sc2ccccc2NC(=O)CCCCCCCCCCC)c(Cl)c1 (stereo not drawn) [Coupler M8] | 7.9 |  |  | 
6 | CCCCCCCCCCCCCCCCCCNS(=O)(=O)c1ccc(Cl)c(NC2=NN(c3c(Cl)cc(Cl)cc3Cl)C(=O)C2Sc2cc(C(C)C)ccc2C(C)C)c1 (stereo not drawn) [Coupler M20] | 8.4 |  |  | 8.9
